Experimental findings from paper PMC3203118, “Elucidation of the ATP7B N-Domain Mg^2+-ATP Coordination Site and Its Allosteric Regulation” (PLoS ONE, 2011) are described below.

Where a chain is given by its changes, count along the chain named.

Experiment in all cases: surface plasmon resonance (BIAcore), protein immobilised on CM4 chip
Assay [1] concerns the target T1, ATP7B N-domain (Nucleotide binding domain) (Homo sapiens, UniProt P35670, N1150A).
T1 construct: covalently immobilised on CM4 sensor chip
T1 sequence (P35670 1036-1196 N1150A): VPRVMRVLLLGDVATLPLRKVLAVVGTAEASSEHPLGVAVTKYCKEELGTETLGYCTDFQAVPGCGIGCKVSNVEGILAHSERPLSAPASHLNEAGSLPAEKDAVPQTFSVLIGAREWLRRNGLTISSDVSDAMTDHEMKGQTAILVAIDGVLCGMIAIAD
Conditions: read-out: Kd (μM) / ATP. An excerpt: (§1) surface plasmon resonance (BIAcore), protein immobilised on CM4 chip on ATP7B N-domain (Nucleotide binding domain)

Assay [2] addresses T2, ATP7B N-domain (Nucleotide binding domain) (Homo sapiens, UniProt P35670, D1171A).
T2 construct: covalently immobilised on CM4 sensor chip
T2 sequence (P35670 1036-1196 D1171A): T1 sequence (P35670 1036-1196 N1150A) with A115N, D136A
The settings on record: read-out: Kd (μM) / ATP.
Source text: as §1

Assay [3] concerns the target T3, ATP7B N-domain (Nucleotide binding domain) (Homo sapiens, UniProt P35670, H1069Q).
T3 construct: covalently immobilised on CM4 sensor chip
T3 sequence (P35670 1036-1196 H1069Q): T1 sequence (P35670 1036-1196 N1150A) with H34Q, A115N
Conditions: read-out: Kd (μM) / ATP.
Source text: as §1

The target in assay [4] is T4, ATP7B N-domain (Nucleotide binding domain) (Homo sapiens, UniProt P35670, E1152A).
T4 construct: covalently immobilised on CM4 sensor chip
T4 sequence (P35670 1036-1196 E1152A): T1 sequence (P35670 1036-1196 N1150A) with A115N, E117A
Conditions: read-out: Kd (μM) / ATP.
Source text: as §1

Assay [5] deals with T5, ATP7B N-domain (Nucleotide binding domain) (Homo sapiens, UniProt P35670, D1167A).
T5 construct: covalently immobilised on CM4 sensor chip
T5 sequence (P35670 1036-1196 D1167A): T1 sequence (P35670 1036-1196 N1150A) with A115N, D132A
The settings on record: read-out: Kd (μM) / ATP.
Source text: as §1

For assay [6], the target named is T6, ATP7B N-domain (Nucleotide binding domain) (Homo sapiens, UniProt P35670, DEL1121-1137).
T6 construct: covalently immobilised on CM4 sensor chip
T6 sequence (P35670 with tags, fused parts or gaps DEL1121-1137): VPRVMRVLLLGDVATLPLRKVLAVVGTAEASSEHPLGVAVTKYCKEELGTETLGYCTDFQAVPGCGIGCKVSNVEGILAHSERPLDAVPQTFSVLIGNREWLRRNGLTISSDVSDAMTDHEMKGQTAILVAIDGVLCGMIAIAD
Source text: as §1

The target in assay [7] is T7, ATP7B N-domain (Nucleotide binding domain) (Homo sapiens, UniProt P35670, D1167A/D1171A/E1152A).
T7 construct: covalently immobilised on CM4 sensor chip
T7 sequence (P35670 1036-1196 E1152A/D1167A/D1171A): T1 sequence (P35670 1036-1196 N1150A) with A115N, E117A, D132A, D136A
Source text: as §1

Assay [8] has as its target T8, ATP7B N-domain (Nucleotide binding domain) (Homo sapiens, UniProt P35670).
T8 construct: covalently immobilised on CM4 sensor chip
T8 sequence (P35670 1036-1196): T1 sequence (P35670 1036-1196 N1150A) with A115N
Conditions: read-out: Kd (μM) / ATP.
Source text: as §1

In the case of `Nc1ncnc2c1ncn2[C@@H]1O[C@H](COP(=O)(O)OP(=O)(O)OP(=O)(O)O)[C@@H](O)[C@H]1O` [ATP], the Kd was 82.7 ± 4.16 µM in assay [1]; 81.1 ± 3.16 µM in assay [2]; 76.5 ± 1.72 µM in assay [3]; 174 ± 3.82 µM in assay [4]; 96.9 ± 3.91 µM in assay [5]; > 1000 µM in assay [6]. In addition, the Kd in assay [7] is > 1000 µM; in assay [8] it was 74.2 ± 2.52 µM.
